Active and inactive are the calls of the source. Where only a bound is given, the exact number is not on record here.

Test [1] is described as follows: Luminescence Cell-Based Dose Retest to Confirm Inhibitors of Cancer Stem Cells. [Related pubchem assays (depositor defined):AID2717, AID2721]. It counts as functional. The conditions noted are these: Homo sapiens.
Test [2] can be described thus: viability of HCT116 lacking mutant beta-catenin – cell-based, human colon tumor, dose response (AID 1045).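 Also: HCT116 colon tumor cells with beta catenin knocked out; cells exposed to compound for 60 hours.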 It counts as functional.
Test [3] deals with T1, Ubiquitin-conjugating enzyme E2 N (Homo sapiens, UniProt P61088).
T1 sequence (P61088 whole entry): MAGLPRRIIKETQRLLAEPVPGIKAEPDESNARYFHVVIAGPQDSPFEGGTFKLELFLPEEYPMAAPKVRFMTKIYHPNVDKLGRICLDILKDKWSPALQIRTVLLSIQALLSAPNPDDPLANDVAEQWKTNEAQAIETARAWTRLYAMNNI
It counts as functional.

Test [4] can be described thus: HPDE-C7 pancreatic duct cell viability loss – fluorescence, HTS (AID 430). It counts as functional, cell-based. The conditions noted are these: Homo sapiens.
A short description of test [5]: viability of PTEN-deleted HCT116 cells – cell-based, HCT116 PTEN knockout, dose response (AID 1047).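 Also: HCT116 colon tumor cells with PTEN knocked out; cells exposed to compound for 60 hours before readout; potency for loss of cell viability measured by luminescence.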 It counts as functional.
Test [6] has as its target T2, Bcl-2-related protein A1 (Mus musculus, UniProt Q07440).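 Also: confirmatory dose–response counterscreen on Bfl-1, used to check hits from a UBC13 polyubiquitin inhibitor campaign.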
T2 sequence (Q07440 whole entry): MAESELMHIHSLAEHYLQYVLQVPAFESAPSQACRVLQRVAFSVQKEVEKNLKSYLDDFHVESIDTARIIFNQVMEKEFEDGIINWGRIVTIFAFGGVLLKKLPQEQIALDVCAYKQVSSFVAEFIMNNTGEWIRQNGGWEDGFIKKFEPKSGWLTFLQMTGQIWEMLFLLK
Format: functional.

Test [7] deals with T1, Ubiquitin-conjugating enzyme E2 N. Format: functional. This is another data set of the same source.
Test [8] deals with T3, DNA repair protein RAD52 homolog (Homo sapiens, UniProt P43351).
T3 sequence (P43351 whole entry): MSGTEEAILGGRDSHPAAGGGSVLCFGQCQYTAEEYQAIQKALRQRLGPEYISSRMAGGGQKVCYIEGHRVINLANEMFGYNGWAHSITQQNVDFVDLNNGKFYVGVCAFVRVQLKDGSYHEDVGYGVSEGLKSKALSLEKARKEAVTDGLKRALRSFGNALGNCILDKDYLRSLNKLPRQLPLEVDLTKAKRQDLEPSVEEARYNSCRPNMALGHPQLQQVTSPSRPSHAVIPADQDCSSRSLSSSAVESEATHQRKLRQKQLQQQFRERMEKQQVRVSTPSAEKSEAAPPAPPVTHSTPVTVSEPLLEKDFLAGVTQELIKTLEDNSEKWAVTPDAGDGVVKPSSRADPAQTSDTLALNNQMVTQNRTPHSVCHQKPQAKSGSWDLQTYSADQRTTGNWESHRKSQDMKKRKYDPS
It counts as functional, biochemical.

The nature of test [9]: viability loss of HPDE-C7K cells – cell-based, fluorescence, HTS, primary screen (AID 431). It counts as functional. The conditions noted are these: Homo sapiens.
Test [10] has as its target Mucolipin-3 (Homo sapiens, UniProt Q8TDD5). As to the kind of experiment: Dose response cell-based high-throughput screening assay for agonists of the transient receptor potential channel ML3 (TRPML3). [Related pubchem assays: 1526, 1424, 1448 ]. Format: functional.
Test [11] addresses Ion channel NompC (Danio rerio, UniProt Q7T1G6). Kind of test: Fluorescence counterscreen assay for TRPML3 agonists: dose response cell-based high-throughput screening assay to identify agonists of the transient receptor potential channel N1 (TRPN1). [Related pubchem assays: 1526, 1424, 1448 ]. Format: functional. On the technique in general: The purpose of a counterscreen is to sort out artefacts and off-target activity.

A short description of test [12]: A Cell Based Secondary Assay To Explore Cytotoxicity of Compounds that Sensitize Mycobacterium Tuberculosis to Beta-Lactam Antibiotics. Format: functional.
Test [13] deals with T4, NADPH oxidase 1 (Homo sapiens, UniProt Q9Y5S8).
T4 sequence (Q9Y5S8 whole entry): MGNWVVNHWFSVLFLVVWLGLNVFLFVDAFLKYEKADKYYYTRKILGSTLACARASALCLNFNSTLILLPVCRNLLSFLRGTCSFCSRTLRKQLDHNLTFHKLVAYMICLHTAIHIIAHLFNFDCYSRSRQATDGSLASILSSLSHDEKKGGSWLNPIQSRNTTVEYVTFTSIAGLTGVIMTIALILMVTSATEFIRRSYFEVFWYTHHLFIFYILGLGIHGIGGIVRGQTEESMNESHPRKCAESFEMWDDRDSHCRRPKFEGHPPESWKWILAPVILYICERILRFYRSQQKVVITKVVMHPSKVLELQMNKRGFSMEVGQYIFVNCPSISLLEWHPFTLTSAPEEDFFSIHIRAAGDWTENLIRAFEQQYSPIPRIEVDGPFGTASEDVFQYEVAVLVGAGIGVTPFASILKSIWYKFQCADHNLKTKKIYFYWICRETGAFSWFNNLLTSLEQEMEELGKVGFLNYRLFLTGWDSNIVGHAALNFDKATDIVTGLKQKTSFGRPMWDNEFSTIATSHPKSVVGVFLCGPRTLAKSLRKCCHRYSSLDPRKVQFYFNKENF
It counts as functional, cell-based.

Test [14] can be described thus: NIH3T3 cell viability loss – ATP luminescence, mouse fibroblasts, counter-screen, dose response (AID 2010).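 Also: cells exposed to compound for about 90 hours before reading.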 It counts as functional, cell-based.
The nature of test [15]: Trypanosoma cruzi growth suppression in host cells – NIH3T3 host cells, beta-gal luminescence, confirmation (AID 2044).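 Also: intracellular parasites grown in NIH/3T3 mouse fibroblasts as host cells; luminescent beta-galactosidase reporter signal from transgenic T. cruzi replicating inside host cells; inhibitors lower the luminescence signal.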 Format: functional, cell-based.
A short description of test [16]: cells.
Test [17] has as its target Epstein-Barr nuclear antigen 1 (Epstein-Barr virus (strain B95-8) (HHV-4) (Human herpesvirus 4), UniProt P03211). Kind of test: inhibition of EBV nuclear antigen 1 DNA binding – biochemical, fluorescence polarization, 1536-well, dose response (AID 2381).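 Also: fluorescence polarization of a Cy5 DNA probe bound by EBNA-1 protein.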 More on the design: species or system human gammaherpesvirus 4. Background: Fluorescence polarisation rises when a labelled molecule tumbles more slowly, as on binding a larger partner.

The target of test [18] is Lytic switch protein BZLF1 (Epstein-Barr virus (strain B95-8) (HHV-4) (Human herpesvirus 4), UniProt P03206). Kind of test: inhibition of BZLF1 ZTA DNA binding – biochemical, fluorescence polarization, Epstein-Barr virus, 1536-well, counter-screen for EBNA-1 inhibitor project, dose response (AID 2377).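 Also: fluorescence polarization of Cy5-labelled ZRE DNA probe bound by purified Zta.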 Also noted: species or system human gammaherpesvirus 4.
Lytic switch protein BZLF1, sequence (P03206 whole entry): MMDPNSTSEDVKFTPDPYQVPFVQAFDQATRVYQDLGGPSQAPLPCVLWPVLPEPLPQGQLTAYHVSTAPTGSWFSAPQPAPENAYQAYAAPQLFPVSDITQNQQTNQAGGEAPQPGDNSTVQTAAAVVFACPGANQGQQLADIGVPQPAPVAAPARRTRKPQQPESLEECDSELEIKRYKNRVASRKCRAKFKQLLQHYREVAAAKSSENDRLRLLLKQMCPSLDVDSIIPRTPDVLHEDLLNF
The target of test [19] is Long-chain-fatty-acid--AMP ligase FadD28 (Mycobacterium tuberculosis, UniProt P9WQ59). As to the kind of experiment: Fluorescence polarization aasay to screen for inhibitors that compete for the binding of FadD28 to a bisubstrate Measured in Biochemical System Using Plate Reader - 2147-01_Inhibitor_Dose_CherryPick_Activity. Format: functional, Mycobacterium tuberculosis H37Rv.
Long-chain-fatty-acid--AMP ligase FadD28, sequence (P9WQ59 whole entry): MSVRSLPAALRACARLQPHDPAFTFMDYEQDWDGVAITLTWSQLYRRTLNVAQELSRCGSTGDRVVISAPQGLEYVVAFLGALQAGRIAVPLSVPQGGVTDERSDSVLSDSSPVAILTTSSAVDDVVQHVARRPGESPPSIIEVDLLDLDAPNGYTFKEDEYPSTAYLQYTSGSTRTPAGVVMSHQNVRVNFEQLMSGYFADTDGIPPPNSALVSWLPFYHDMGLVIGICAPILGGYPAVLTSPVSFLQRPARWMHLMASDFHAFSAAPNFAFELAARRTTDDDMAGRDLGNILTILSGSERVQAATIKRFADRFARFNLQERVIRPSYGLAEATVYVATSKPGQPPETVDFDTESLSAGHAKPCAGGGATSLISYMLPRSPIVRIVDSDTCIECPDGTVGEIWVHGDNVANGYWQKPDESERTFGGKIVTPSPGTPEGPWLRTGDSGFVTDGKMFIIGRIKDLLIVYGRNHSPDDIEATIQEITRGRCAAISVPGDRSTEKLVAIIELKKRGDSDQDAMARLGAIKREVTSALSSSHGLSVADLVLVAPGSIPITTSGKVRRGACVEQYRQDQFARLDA

Test [20] addresses T5, Estrogen receptor (Homo sapiens, UniProt P03372).
T5 sequence (P03372 whole entry): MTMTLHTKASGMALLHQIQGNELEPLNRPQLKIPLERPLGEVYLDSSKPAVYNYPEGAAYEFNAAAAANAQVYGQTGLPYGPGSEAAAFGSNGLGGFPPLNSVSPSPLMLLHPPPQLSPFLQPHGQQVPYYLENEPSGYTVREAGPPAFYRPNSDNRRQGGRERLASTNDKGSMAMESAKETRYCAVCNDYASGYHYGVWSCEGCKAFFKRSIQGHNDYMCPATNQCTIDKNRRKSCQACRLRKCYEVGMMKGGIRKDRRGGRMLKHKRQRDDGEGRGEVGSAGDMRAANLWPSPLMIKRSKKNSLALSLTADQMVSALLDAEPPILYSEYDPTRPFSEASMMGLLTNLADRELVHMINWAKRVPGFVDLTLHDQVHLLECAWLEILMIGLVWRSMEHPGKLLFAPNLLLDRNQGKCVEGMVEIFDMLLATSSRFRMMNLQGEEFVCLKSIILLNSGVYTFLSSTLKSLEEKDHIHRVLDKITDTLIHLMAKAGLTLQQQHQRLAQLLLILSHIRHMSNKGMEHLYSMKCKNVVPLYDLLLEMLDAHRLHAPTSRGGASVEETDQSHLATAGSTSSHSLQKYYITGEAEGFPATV

Test [21] concerns the target T6, Mannose-6-phosphate isomerase (Homo sapiens, UniProt P34949).
T6 sequence (P34949 whole entry): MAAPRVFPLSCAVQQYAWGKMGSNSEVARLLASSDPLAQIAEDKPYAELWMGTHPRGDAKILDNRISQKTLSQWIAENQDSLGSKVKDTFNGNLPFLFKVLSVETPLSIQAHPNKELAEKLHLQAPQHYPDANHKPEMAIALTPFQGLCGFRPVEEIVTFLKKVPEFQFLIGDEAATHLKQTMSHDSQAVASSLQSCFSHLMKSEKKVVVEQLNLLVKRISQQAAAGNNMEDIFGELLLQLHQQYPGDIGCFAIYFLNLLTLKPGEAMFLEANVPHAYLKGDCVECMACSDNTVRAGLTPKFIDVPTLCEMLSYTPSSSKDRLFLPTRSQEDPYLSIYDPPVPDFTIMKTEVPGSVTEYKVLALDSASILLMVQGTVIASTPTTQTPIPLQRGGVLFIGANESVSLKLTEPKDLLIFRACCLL
As to the kind of experiment: MPI inhibition at elevated mannose 6-phosphate – biochemical, fluorescence intensity, high mannose 6-phosphate, primary screen (AID 1220).

A short description of test [22]: Luminescence Cell-Based Dose Response HTS to Identify Inhibitors of 5'UTR Stem-Loop Driven Prion Protein mRNA Translation in H4 Neuroglioblastoma Cells. [Related pubchem assays: 1827 (Project Summary), 1813 (Primary HTS)]. Format: functional.
Test [23] in a line: luciferase reporter signal suppression in cells – H4 neuroglioma cells, luminescence, dose response (AID 1990). Format: functional, cell-based. On the technique in general: A reporter such as luciferase makes a cellular process visible.
Test [24] can be described thus: alpha-synuclein stem-loop luciferase translation blockers – H4 neuroglioma cells, luminescence, confirmation (AID 1988). It counts as functional, cell-based.
Test [25] has as its target T6, Mannose-6-phosphate isomerase. As to the kind of experiment: MPI enzyme activity inhibition – biochemical, fluorescence intensity, coupled assay, primary screen (AID 1209).
Test [26] deals with Voltage-gated inwardly rectifying potassium channel KCNH2 (Homo sapiens, UniProt Q12809). Kind of test: concentration-dependent hERG rescue from blockers – cell-based, thallium flux, dose response (AID 2121). It counts as ADME.
Voltage-gated inwardly rectifying potassium channel KCNH2, sequence (Q12809 whole entry): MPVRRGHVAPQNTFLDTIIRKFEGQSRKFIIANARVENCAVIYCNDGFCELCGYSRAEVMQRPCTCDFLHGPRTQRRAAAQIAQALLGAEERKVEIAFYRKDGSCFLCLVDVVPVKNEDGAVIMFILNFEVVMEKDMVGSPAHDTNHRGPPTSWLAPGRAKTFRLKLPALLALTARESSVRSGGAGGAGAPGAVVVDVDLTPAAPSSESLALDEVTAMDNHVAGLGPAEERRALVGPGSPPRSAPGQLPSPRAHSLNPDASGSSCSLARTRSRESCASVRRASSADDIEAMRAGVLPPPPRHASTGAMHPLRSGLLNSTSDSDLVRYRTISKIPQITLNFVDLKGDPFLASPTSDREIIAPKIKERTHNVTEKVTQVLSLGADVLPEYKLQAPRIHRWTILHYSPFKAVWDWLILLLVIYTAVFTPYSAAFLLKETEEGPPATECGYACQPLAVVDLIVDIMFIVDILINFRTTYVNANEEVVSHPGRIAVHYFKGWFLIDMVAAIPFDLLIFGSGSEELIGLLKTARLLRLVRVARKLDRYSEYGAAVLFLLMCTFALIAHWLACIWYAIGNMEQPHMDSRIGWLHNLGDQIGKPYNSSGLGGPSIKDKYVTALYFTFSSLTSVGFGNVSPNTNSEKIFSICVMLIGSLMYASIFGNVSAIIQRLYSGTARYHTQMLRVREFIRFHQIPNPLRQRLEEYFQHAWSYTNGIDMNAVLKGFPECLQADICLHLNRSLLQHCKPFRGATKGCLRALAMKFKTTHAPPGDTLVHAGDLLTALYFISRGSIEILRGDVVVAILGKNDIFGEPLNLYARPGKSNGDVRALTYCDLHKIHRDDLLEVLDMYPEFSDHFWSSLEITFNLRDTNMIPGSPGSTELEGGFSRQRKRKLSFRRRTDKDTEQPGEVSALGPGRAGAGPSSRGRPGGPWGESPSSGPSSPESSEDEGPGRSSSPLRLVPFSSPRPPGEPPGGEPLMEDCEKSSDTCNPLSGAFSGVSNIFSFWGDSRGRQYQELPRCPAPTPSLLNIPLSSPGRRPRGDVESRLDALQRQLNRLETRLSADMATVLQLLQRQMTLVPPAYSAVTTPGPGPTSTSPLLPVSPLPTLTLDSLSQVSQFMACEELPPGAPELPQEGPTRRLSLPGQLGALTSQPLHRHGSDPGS

Ion channel NompC, sequence (Q7T1G6 whole entry): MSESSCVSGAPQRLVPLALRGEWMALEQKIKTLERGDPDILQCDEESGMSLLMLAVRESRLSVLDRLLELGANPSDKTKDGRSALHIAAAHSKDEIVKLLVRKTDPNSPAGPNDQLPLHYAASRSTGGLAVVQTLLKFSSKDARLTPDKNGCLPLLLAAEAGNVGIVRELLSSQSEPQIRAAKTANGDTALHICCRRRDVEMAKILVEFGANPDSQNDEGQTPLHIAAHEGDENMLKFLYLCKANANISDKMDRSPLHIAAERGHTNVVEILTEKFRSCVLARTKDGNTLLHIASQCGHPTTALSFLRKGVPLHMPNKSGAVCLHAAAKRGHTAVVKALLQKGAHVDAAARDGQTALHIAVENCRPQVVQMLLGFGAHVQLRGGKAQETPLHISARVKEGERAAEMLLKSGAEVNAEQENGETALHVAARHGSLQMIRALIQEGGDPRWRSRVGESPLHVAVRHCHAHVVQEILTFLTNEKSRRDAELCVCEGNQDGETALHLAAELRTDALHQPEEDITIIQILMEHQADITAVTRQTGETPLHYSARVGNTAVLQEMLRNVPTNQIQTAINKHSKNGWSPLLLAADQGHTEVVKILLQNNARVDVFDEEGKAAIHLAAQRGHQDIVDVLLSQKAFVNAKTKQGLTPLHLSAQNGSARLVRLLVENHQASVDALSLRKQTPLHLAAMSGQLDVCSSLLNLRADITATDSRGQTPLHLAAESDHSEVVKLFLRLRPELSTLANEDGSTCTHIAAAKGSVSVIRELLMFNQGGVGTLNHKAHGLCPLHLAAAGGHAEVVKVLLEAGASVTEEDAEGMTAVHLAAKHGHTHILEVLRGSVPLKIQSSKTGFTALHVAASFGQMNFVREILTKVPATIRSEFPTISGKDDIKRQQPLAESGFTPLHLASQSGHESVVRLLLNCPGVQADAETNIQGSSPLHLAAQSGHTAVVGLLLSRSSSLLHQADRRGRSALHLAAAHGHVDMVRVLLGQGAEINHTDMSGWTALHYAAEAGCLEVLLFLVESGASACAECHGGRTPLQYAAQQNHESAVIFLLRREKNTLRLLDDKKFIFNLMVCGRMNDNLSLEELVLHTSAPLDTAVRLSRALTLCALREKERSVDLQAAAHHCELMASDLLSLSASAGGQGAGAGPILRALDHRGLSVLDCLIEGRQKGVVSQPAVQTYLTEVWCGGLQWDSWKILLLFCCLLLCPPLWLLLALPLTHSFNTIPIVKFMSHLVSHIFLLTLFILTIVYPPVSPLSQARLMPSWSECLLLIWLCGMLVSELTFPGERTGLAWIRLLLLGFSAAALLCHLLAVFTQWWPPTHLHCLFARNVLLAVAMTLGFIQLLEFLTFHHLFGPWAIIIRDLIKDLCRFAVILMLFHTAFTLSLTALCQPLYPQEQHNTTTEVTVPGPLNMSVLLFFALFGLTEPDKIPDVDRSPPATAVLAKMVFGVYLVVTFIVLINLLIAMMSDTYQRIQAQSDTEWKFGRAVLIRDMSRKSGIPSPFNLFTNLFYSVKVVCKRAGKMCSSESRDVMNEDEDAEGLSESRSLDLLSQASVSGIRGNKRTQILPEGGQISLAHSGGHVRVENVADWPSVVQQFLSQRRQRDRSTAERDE
Mucolipin-3, sequence (Q8TDD5 whole entry): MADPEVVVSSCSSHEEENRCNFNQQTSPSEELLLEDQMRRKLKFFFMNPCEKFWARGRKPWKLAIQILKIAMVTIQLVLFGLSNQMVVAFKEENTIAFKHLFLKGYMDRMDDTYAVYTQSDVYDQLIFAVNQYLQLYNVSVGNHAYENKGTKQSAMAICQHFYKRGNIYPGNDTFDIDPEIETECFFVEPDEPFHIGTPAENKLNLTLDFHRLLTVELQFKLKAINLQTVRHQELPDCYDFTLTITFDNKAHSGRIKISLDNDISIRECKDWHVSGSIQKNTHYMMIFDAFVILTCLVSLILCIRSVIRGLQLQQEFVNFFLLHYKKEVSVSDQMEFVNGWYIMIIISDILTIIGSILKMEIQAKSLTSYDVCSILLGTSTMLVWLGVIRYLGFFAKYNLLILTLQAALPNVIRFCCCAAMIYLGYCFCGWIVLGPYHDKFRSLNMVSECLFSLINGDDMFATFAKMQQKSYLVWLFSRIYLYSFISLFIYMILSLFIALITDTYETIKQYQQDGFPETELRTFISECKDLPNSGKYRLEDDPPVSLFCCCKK
Epstein-Barr nuclear antigen 1, sequence (P03211 whole entry): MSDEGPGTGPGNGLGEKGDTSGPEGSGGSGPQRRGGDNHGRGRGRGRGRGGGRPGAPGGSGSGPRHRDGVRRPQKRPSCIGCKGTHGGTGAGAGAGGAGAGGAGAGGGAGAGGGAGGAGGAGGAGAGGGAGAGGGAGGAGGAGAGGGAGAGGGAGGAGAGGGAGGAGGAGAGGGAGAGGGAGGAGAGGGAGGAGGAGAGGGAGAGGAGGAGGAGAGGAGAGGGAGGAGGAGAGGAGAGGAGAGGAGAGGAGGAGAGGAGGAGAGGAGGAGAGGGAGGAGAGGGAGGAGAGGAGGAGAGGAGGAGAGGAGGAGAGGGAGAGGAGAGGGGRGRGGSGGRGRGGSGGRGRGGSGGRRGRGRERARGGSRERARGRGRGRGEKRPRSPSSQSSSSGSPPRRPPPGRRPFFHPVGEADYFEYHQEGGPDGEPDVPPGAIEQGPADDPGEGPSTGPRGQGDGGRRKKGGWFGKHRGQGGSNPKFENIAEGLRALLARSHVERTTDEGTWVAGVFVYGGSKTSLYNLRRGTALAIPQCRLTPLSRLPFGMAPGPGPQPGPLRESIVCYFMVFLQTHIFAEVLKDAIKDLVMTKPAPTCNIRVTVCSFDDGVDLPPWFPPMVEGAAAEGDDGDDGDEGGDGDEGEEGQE

Broadly, the AC50 is the midpoint of the concentration-response curve, whichever way the signal moves. One may read the EC50 as the concentration needed to bring the measured effect to its halfway point. One may read the IC50 as the concentration needed to halve the response being measured. `OCCN1CCN(CCCN2c3ccccc3Sc3ccc(C(F)(F)F)cc32)CC1`: the half-maximal activity concentration (AC50) in test [1] is 4.16 µM (active); in [8], 12.7 µM (active). Also, the EC50 is 8.41 µM (active) in test [2], 13.2 µM (active) in test [4], 8.4 µM (active) in test [5] and 9.66 µM (active) in [9]. For the same molecule, the half-inhibitory concentration (IC50) in [3] is 17.3 µM (active); in test [6] it was > 20 µM (inactive); in [7], 17.5 µM (active).

In the case of `COC(=O)CN(c1cc(Cl)ccc1OC)S(=O)(=O)c1ccc(C)cc1`, the EC50 in [10] was 3.49 µM (active); in [11], > 29.9 µM (not active).

In general, CC50 refers to the concentration that lowers cell viability or growth by half. For the molecule `CCOC(=O)c1sc(NC(=O)CN2CCCC2)c(C(=O)OCC)c1C`, the CC50 in test [12] was > 40 µM (active).

On to `Cc1cc(S(=O)(=O)N2CCCCCC2)c(Cl)cc1Cl`, for which the EC50 in [10] and in test [11] was > 29.9 µM (not active) in each case.

Consider `O=C(Oc1ccc(-c2nnco2)cc1)c1sc2ccccc2c1Cl`, for which the IC50 in test [13] was > 17 µM (not active).

Turning to `CN(C)CCCN(C(=O)c1ccco1)c1nc2cc3c(cc2s1)OCO3`, the concentration giving a half-maximal response (EC50) in test [14] is > 60 µM (not active); in test [15], < 0.1 µM (active); in test [16], 0.213 µM (active). In test [8], the concentration at half-maximal activity (AC50) is 25.2 µM (active).

Take `Cc1cc2nc3n(c2cc1C)CCCN3`: the concentration giving a half-maximal response (EC50) was > 60 µM (not active) in [14], < 0.1 µM (active) in [15] and 0.121 µM (active) in test [16].

For `Cc1cc(C)cc(NC(=O)c2cc(Cl)sc2Cl)c1`, the 50% cytotoxic concentration (CC50) in [12] is > 20 µM (active).

Regarding `O=C(Cn1cnc2ccccc2c1=O)Nc1nc2ccccc2s1`, the half-maximal inhibitory concentration (IC50) in [17] was 51.4 µM (not active); in test [18], > 111 µM (not active).

Regarding `CCCCCCCCNC(C)C(O)c1ccc(SC(C)C)cc1` (stereo unspecified), the half-maximal effective concentration (EC50) in test [2] was 11.3 µM (active); in [4], > 20 µM (not active); in test [5] it was 15.2 µM (active); in test [9], > 20 µM (not active). Also, the concentration at half-maximal activity (AC50) in test [19] was 64.1 µM (active).

On to `COc1ccc(-n2c(SCC(=O)Nc3nccs3)nc3sc4c(c3c2=O)CCN(C)C4)cc1`, for which the IC50 in test [20] is 8.48 µM (active).

Regarding `S=C(CCC(=S)Nc1ccc(Cl)cc1)Nc1ccc(Cl)cc1`, in [13], the IC50 was > 17 µM (not active).

Regarding `Cc1ccccc1NCc1ccc(O)c2ncccc12`, the IC50 in [21] was 11.5 µM (active); in test [25] it was 12.5 µM (active). Moreover, the EC50 in test [22] is > 120 µM (not active); in test [23], 11.2 µM (active); in test [24], 10.4 µM (active).

Regarding `COc1ccc(OC)c(NC(=O)C(=O)NNC(=O)c2cccs2)c1`, the EC50 in test [26] is 3.5 µM (active).

On to `COc1ccc(NC(S)=NN=C(S)Nc2cccc(C(F)(F)F)c2)cc1`, for which the results for the IC50 in test [17] and in [18] were 6.7 µM (active) and > 111 µM (not active), respectively.

With `O=Cc1cn(-c2ccccc2)nc1-c1cc2c(ccc3ccccc32)oc1=O`, the IC50 in test [20] was 19.6 µM (active).

For the origin of these results see ChEMBL document CHEMBL1201862, “PubChem BioAssay data set” (2004).
